Measured values from patent publication US20170128518A1, “METHODS AND MATERIALS FOR IDENTIFYING AND TREATING MAMMALS RESISTANT TO PROTEASOME INHIBITOR TREATMENTS” (Mayo Foundation for Medical Education and Research, priority 2014, published 2017).
“Also recorded” adds a separate entry of the source.

Legend:
[1] = target: T1, 20S proteasome b5 subunit (Homo sapiens, UniProt P28074); assay: Proteasomal activity assay, chymotrypsin-like (LLVY-AMC), WM cells; type: biochemical; conditions: 10 nmol/l; WT and BR WM cells
T1 construct: Cells were lysed at 4×10^6 cells/ml in proteasomal activity assay buffer; endogenous in cells; host or cells: BCWM.1, MWCL-1, RPCI-WM1 and their BR subclones (lysates)
T1 sequence (P28074 60-263): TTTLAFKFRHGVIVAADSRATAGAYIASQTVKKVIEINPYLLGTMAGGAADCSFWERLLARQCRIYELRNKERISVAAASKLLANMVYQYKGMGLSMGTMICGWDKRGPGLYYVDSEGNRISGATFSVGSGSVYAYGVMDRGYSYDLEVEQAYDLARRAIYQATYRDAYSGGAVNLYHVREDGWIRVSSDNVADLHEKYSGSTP
Method: FIGS. 10A and 10B are a series of graphs plotting the effect of b-AP15 treatment on 20S proteasome, b5-subunit (chymotrypsin-like) catalytic activity in WT and BR WM cells.
Cells were lysed at 4×10^6 cells/ml in proteasomal activity assay buffer [assay buffer; 25 mmol/1 HEPES buffer, pH7.5 containing 0.5 mmol/1 EDTA, 0.05% Nonidet P-40, 0.01% sodium dodecyl sulfate (SDS)] and immediately used in the assay. Enzyme reactions were performed in 96-well plates with 100 μl of final volume containing […] fluorogenic peptide substrates. The substrates used were LLVY-AMC for chymotrypsin like activity, LLE-AMC for caspase-like activity and LRR-AMC for trypsin-like activity. Reactions were incubated at 37° C. for 1 hour and fluorescence was measured at 360/460 using a BioTek synergy HT plate reader (BioTek, Winooski, Vt.).

[2] = system: WM cell lines (BCWM.1, BCWM.1/BR, RPCI-WM1, RPCI-WM/BR); assay: NanoString nCounter gene expression profiling; type: cell-based, human; conditions: 50 nmol/l (WT) or 100 nmol/l (BR), 24 hours
Method: FIGS. 14A and 14B are diagrams depicting genes altered in b-AP15 treated WM cells. BCWM.1 and RPCI-WM1 were treated with b-AP15 (50 nmol/l), and BR clones were treated with 100 nmol/1 of the DUB inhibitor for 24 hours, followed by collection of RNA for profiling using the NanoString nCounter assay. FIG. 14A is an intersect analysis in which treated (Tx) cell lines were first compared to their untreated counterparts and then against one another to delineate which genes were altered in the same orientation across all four cell lines tested. FIG. 14B is a diagram of an IPA network analysis, depicting the relationship between the 36 genes and illustrating the interaction and relative expression of these genes. The darkness of the node color denotes the degree of differential gene expression as compared to baseline.
Total RNA from four WM cell lines (BCWM.1, BCWM.1/BR, RPCI-WM1 and RPCI-WM/BR) were prepared using Exiqon miRCURY RNA isolation kit (Exiqon, Woburn, Mass. USA) following the manufacturer's instructions. RNA samples were quantitated using a ND-1000 spectrophotometer (NanoDrop) and evaluated for degradation using a 2100 Bioanalyzer (Agilent Technologies, Santa Clara, Calif., USA).
The NanoString nCounter (NanoString, Seattle, Wash.) assay was used for mRNA quantification and expression in WM cells that were treated with b-AP15, as described elsewhere (Geiss et al., Nat Biotechnol 26:317-25, 2008; and Paulus et al., Brit J Haematol 164:352-65, 2014). Briefly, a library is constructed with two sequence-specific probes for the gene of interest. Unique pairs of 3′ reporter and 5′ capture probes are developed to distinguish transcripts for the gene of interest using a color-based barcoding system. The capture probe contains a base pair sequence that is complementary to the target mRNA and linked to a biotin affinity tag, which binds the mRNA of interest. The reporter probe also is also designed to be complementary to the target mRNA, contains a base sequence that is linked to an RNA-based color-coded molecular tag that provides a signal for detection. Using this method, a distinct color code is digitally generated for each gene of interest. In our experiments, all probes were mixed together with total RNA (100 ng from each sample) in a single hybridization reaction for 12 hours at 65° C. in solution. Using the nCounter Prep Station, each probe-mRNA complex was captured post-hybridization onto a streptavidin coated surface, aligned and imaged. Each sample was scanned for 600 FOV on the nCounter Digital Analyzer. As each target mRNA is designated by its unique color code, the level of expression was quantified by counting the number of codes for each molecule. Subsequent normalization of the raw data to internal controls provided by the manufacturer was performed using the nSolver Analysis software v1.1. Data was extracted using the nCounter RCC Collector; based on the positive and negative controls, a cutoff of 20 was used to filter out transcript signals that registered at levels of background noise.
Statistical interpretation and data visualization (heat map) was conducted using Multi Experiment Viewer (MeV) from The Institute for Genomic Research (TIGR) (Saeed et al., Methods Enzymol 411:134-193, 2006; and Saeed et al., Biotechniques 34:374-378, 2003). Using the normalized data that was exported from nCounter RCC Collector, an average of mRNA transcript probe values was taken for each cell line (three biological replicates each) representing controls (untreated) and drug-treated samples, a tab-delimited text file was generated in Microsoft Excel and uploaded into MeV. Genes were log-2 transformed and mean centered. Bi-dimensional, average-linkage, unsupervised hierarchical clustering analysis was applied to find the relationships between samples and genes using the Pearson correlation coefficient.

C=CC(=O)N1C/C(=C\c2ccc([N+](=O)[O-])cc2)C(=O)/C(=C/c2ccc([N+](=O)[O-])cc2)C1 [b-AP15]
chymotrypsin-like activity (LLVY) of the b5 subunit [1]: did not alter chymotryptic activity; also recorded: no loss of the chymotrypsin-like activity | Average fold change, AKT2 [2]: −2.812 fold | Average fold change, BIRC5 [2]: −2.209 fold | Average fold change, BMI1 [2]: −3.09 fold | Average fold change, CASP2 [2]: −3.679 fold | Average fold change, CCNA2 [2]: −5.841 fold | Average fold change, CCND2 [2]: −3 fold | Average fold change, CCNE1 [2]: −4.193 fold | Average fold change, CDC2 [2]: −4.668 fold | Average fold change, CDC25B [2]: −3.629 fold | Average fold change, CDK4 [2]: −2.59 fold | Average fold change, CSK [2]: −3.871 fold | Average fold change, E2F1 [2]: −3.634 fold | Average fold change, EGR1 [2]: 2.27 fold | Average fold change, ETV6 [2]: −4.643 fold | Average fold change, FOS [2]: 5.569 fold | Average fold change, HDAC1 [2]: −2.887 fold | Average fold change, HRAS [2]: −3.277 fold | Average fold change, IL8 [2]: 14.77 fold | Average fold change, JUN [2]: 5.625 fold | Average fold change, MSH2 [2]: −4.367 fold | Average fold change, MSH6 [2]: −4.242 fold | Average fold change, MYB [2]: −9.647 fold | Average fold change, MYBL2 [2]: −2.794 fold | Average fold change, MYC [2]: −3.287 fold | Average fold change, PCNA [2]: −3.166 fold | Average fold change, RAD54L [2]: −3.029 fold | Average fold change, SERPINE1 [2]: 5.734 fold | Average fold change, SPI1 [2]: −2.522 fold | Average fold change, SYK [2]: −3.84 fold | Average fold change, TFDP1 [2]: −4.261 fold | Average fold change, TFRC [2]: −3.192 fold | Average fold change, TOP2A [2]: −6.321 fold | Average fold change, TUBB [2]: −3.724 fold | Average fold change, TYMS [2]: −3.966 fold | Average fold change, XPC [2]: −3.045 fold | Average fold change, XRCC5 [2]: −2.834 fold
